Assay results from ChEMBL document CHEMBL5724914, “Linking interpersonal differences in gut microbiota composition and drug biotransformation activity” (2024).

Legend:
[1] = The drug is tested on Z-028 corresponding to mouse gut metagenome with ENA study accession number: PRJEB37062 and ENA sample accession number: ERS12561827 for biotransformation under anaerobic condition. The drug concentrations were measured over 9 timepoints collected between 0 and 24 hours of incubation by liquid-chromatography-coupled mass spectrometry (LC–MS); conditions: 2 µM
[2] = The drug is tested on Z-026 corresponding to metagenome with ENA study accession number: PRJEB37062 and ENA sample accession number: ERS12561825 for biotransformation under anaerobic condition. The drug concentrations were measured over 9 timepoints collected between 0 and 24 hours of incubation by liquid-chromatography-coupled mass spectrometry (LC–MS); conditions: 2 µM
[3] = The drug is tested on Z-017 corresponding to mouse gut metagenome with ENA study accession number: PRJEB37062 and ENA sample accession number: ERS12561816 for biotransformation under anaerobic condition. The drug concentrations were measured over 9 timepoints collected between 0 and 24 hours of incubation by liquid-chromatography-coupled mass spectrometry (LC–MS); conditions: 2 µM
[4] = The drug is tested on Z-012 corresponding to metagenome with ENA study accession number: PRJEB37062 and ENA sample accession number: ERS12561812 for biotransformation under anaerobic condition. The drug concentrations were measured over 9 timepoints collected between 0 and 24 hours of incubation by liquid-chromatography-coupled mass spectrometry (LC–MS); conditions: 2 µM
[5] = The drug is tested on Z-006 corresponding to mouse gut metagenome with ENA study accession number: PRJEB37062 and ENA sample accession number: ERS12561806 for biotransformation under anaerobic condition. The drug concentrations were measured over 9 timepoints collected between 0 and 24 hours of incubation by liquid-chromatography-coupled mass spectrometry (LC–MS); conditions: 2 µM
[6] = The drug is tested on Z-003 corresponding to pig gut metagenome with ENA study accession number: PRJEB37062 and ENA sample accession number: ERS12561803 for biotransformation under anaerobic condition. The drug concentrations were measured over 9 timepoints collected between 0 and 24 hours of incubation by liquid-chromatography-coupled mass spectrometry (LC–MS); conditions: 2 µM
[7] = The drug is tested on WLS-310 corresponding to human gut metagenome with ENA study accession number: PRJEB37062 and ENA sample accession number: ERS12561785 for biotransformation under anaerobic condition. The drug concentrations were measured over 9 timepoints collected between 0 and 24 hours of incubation by liquid-chromatography-coupled mass spectrometry (LC–MS); conditions: 2 µM
[8] = The drug is tested on WLS-240 corresponding to human gut metagenome with ENA study accession number: PRJEB37062 and ENA sample accession number: ERS12561773 for biotransformation under anaerobic condition. The drug concentrations were measured over 9 timepoints collected between 0 and 24 hours of incubation by liquid-chromatography-coupled mass spectrometry (LC–MS); conditions: 2 µM
[9] = human gut metagenome, 24 h, 2 µM
[10] = human gut metagenome, 24 h, 2 µM; remark: listed apart in the source
[11] = human gut metagenome, 24 h, 2 µM; remark: listed apart in the source
[12] = human gut metagenome, 24 h, 2 µM; remark: listed apart in the source
[13] = human gut metagenome, 24 h, 2 µM; remark: listed apart in the source
[14] = human gut metagenome, 24 h, 2 µM; remark: listed apart in the source
[15] = human gut metagenome, 24 h, 2 µM; remark: listed apart in the source
[16] = human gut metagenome, 24 h, 2 µM; remark: listed apart in the source
[17] = human gut metagenome, 24 h, 2 µM; remark: listed apart in the source
[18] = human gut metagenome, 24 h, 2 µM; remark: listed apart in the source
[19] = human gut metagenome, 24 h, 2 µM; remark: listed apart in the source
[20] = human gut metagenome, 24 h, 2 µM; remark: listed apart in the source
Note: call rule not given here.

Row | Compound | Bacterial Biotransformation [1] | Bacterial Biotransformation [2] | Bacterial Biotransformation [3] | Bacterial Biotransformation [4] | Bacterial Biotransformation [5] | Bacterial Biotransformation [6] | Bacterial Biotransformation [7] | Bacterial Biotransformation [8] | Bacterial Biotransformation [9] | Bacterial Biotransformation [10] | Bacterial Biotransformation [11] | Bacterial Biotransformation [12] | Bacterial Biotransformation [13] | Bacterial Biotransformation [14] | Bacterial Biotransformation [15] | Bacterial Biotransformation [16] | Bacterial Biotransformation [17] | Bacterial Biotransformation [18] | Bacterial Biotransformation [19] | Bacterial Biotransformation [20]
1 | NC12CC3CC(CC(C3)C1)C2 [AMANTADINE] | Compound NOT metabolized | Compound NOT metabolized | Compound NOT metabolized | Compound NOT metabolized | Compound NOT metabolized | Compound NOT metabolized | Compound NOT metabolized | Compound NOT metabolized | Compound NOT metabolized | Compound NOT metabolized | Compound NOT metabolized | Compound NOT metabolized | Compound NOT metabolized | Compound NOT metabolized | Compound NOT metabolized | Compound NOT metabolized | Compound NOT metabolized | Compound NOT metabolized | Compound NOT metabolized | Compound NOT metabolized
2 | CC(C)(C#N)c1cc(Cn2cncn2)cc(C(C)(C)C#N)c1 [ANASTROZOLE] | Compound NOT metabolized | Compound NOT metabolized | Compound NOT metabolized | Compound NOT metabolized | Compound NOT metabolized | Compound metabolized | Compound metabolized | Compound metabolized | Compound NOT metabolized | Compound NOT metabolized | Compound NOT metabolized | Compound NOT metabolized | Compound NOT metabolized | Compound NOT metabolized | Compound NOT metabolized | Compound NOT metabolized | Compound metabolized | Compound NOT metabolized | Compound NOT metabolized | Compound NOT metabolized
3 | O=P(O)(O)O.c1ccc(CN(CC2=NCCN2)c2ccccc2)cc1 [ANTAZOLINE PHOSPHATE] | Compound NOT metabolized | Compound NOT metabolized | Compound NOT metabolized | Compound NOT metabolized | Compound NOT metabolized | Compound metabolized | Compound NOT metabolized | Compound metabolized | Compound NOT metabolized | Compound NOT metabolized | Compound NOT metabolized | Compound NOT metabolized | Compound NOT metabolized | Compound NOT metabolized | Compound NOT metabolized | Compound NOT metabolized | Compound metabolized | Compound metabolized | Compound metabolized | Compound metabolized
4 | CN1CCC(=C2c3ccccc3CCc3cccnc32)CC1.O=C(O)/C=C\C(=O)O.O=C(O)/C=C\C(=O)O [AZATADINE MALEATE] | Compound NOT metabolized | Compound NOT metabolized | Compound NOT metabolized | Compound NOT metabolized | Compound NOT metabolized | Compound NOT metabolized | Compound NOT metabolized | Compound NOT metabolized | Compound NOT metabolized | Compound NOT metabolized | Compound NOT metabolized | Compound metabolized | Compound NOT metabolized | Compound NOT metabolized | Compound NOT metabolized | Compound NOT metabolized | Compound NOT metabolized | Compound NOT metabolized | Compound NOT metabolized | Compound NOT metabolized
5 | CC(=O)OCC(=O)[C@@]1(O)[C@@H](C)C[C@H]2[C@@H]3CCC4=CC(=O)C=C[C@]4(C)[C@@]3(F)[C@@H](O)C[C@@]21C [BETAMETHASONE ACETATE] | Compound metabolized | Compound metabolized | Compound metabolized | Compound NOT metabolized | Compound metabolized | Compound metabolized | Compound metabolized | Compound metabolized | Compound metabolized | Compound NOT metabolized | Compound metabolized | Compound metabolized | Compound metabolized | Compound metabolized | Compound metabolized | Compound metabolized | Compound metabolized | Compound metabolized | Compound metabolized | Compound metabolized
